Values belong to the compound of their own block, whether it stands above or below them.
What was measured:
C57/BL6 mice = assay: Oral Glucose Tolerance Tests (OGTT) in C57/BL6 mice; type: in vivo; details: single oral dose, glucose load 3 gm/kg, serum glucose AUC, head 50 mg/kg
Procedure: In Vivo Efficacy Studies: Oral Glucose Tolerance Tests (OGTT) in C57/13L6 mice:
C57/BL6 mice of 6-8 week age are used for this experiment. Animals are grouped based on non-fasting serum glucose levels and kept on fasting for overnight (day before OGTT). On the experiment day, […], 30 min post dosing animals are bled for basal glucose level estimation and at the same time glucose load (3 gm/kg) will be administered per orally. Blood is collected at time points corresponding to 20, 40, 60 and 120 min after glucose load administration. Serum is separated for determination of glucose levels and change in area under curve for glucose is calculated and provided in Table 3 as % to reduction in AUC.

db/db mice = assay: Oral Glucose Tolerance Tests (OGTT) in db/db mice; type: in vivo; details: single oral dose 50 mg/kg, glucose load 2 g/kg, AUC glucose excursion vs vehicle control
Procedure: Oral Glucose Tolerance Tests (OGTT) in db/db mice:
db/db mice of 5-7 week age are used for this experiment. Animals were kept on fasting and are grouped based on fasting serum glucose levels and after grouping OGTT was performed. Each animal receive a single dose of vehicle/test compounds (50 mg/kg) administered orally, 30 min post dosing animals are bled for basal glucose level estimation and at the same time glucose load (2 g/kg) will be administered per orally. Blood is collected at time points corresponding to 30, 60 and 120 min after glucose load administration. Serum is separated for determination of glucose levels and change in area under curve for glucose and glucose excursion is calculated from Vehicle control with glucose load Vs water control group without glucose load and provided in Table 4 as % reduction in AUC glucose excursion Vs Vehicle control is calculated.

human GPR 119 receptor = molecular target: T1, human GPR 119 receptor (Homo sapiens, UniProt Q8TDV5); assay: cAMP assay in stable cell line expressing recombinant human GPR 119 receptor; type: cell-based; details: for Fold increase in cyclic AMP with respective to DMSO: DMSO = 1
T1 construct: expressed in transfected cells
T1 sequence (Q8TDV5 1-335): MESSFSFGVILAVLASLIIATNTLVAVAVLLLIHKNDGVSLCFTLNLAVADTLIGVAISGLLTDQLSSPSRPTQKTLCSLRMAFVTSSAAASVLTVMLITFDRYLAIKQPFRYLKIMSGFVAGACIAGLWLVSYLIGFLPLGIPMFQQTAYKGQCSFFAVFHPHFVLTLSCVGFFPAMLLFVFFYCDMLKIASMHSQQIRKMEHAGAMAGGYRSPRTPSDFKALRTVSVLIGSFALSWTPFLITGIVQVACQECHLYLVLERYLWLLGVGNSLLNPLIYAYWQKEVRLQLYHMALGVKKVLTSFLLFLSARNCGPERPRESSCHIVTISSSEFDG
Source text: A stable cell line expressing recombinant human GPR 119 receptor was established and used to investigate the efficacy of the compounds of the invention based on the intracellular levels of cyclic AMP (cAMP) using commercially available cAMP kits.

SMILES: CCOC(=O)CN1C(=O)S/C(=C\c2ccc(Oc3ncnc(OC4CCN(C(=O)OC(C)(C)C)CC4)c3C)cc2)C1=O [Example 2, (Z)-tert-Butyl 4-((6-(4-((3-(2-ethoxy-2-oxoethyl)-2,4-dioxothiazolidin-5-ylidene)methyl)phenoxy)-5-methylpyrimidin-4-yl)oxy)piperidine-1-carboxylate]
% reduction in AUC at 50 mg/kg (C57/BL6 mice): 13.0%
% reduction in AUC at 50 mg/kg (db/db mice): 47.3%
Fold increase in cyclic AMP with respective to DMSO (human GPR 119 receptor; 10 nM compound): 5.90 fold
Fold increase in cyclic AMP with respective to DMSO (human GPR 119 receptor; 100 nM compound): 8.00 fold
Fold increase in cyclic AMP with respective to DMSO (human GPR 119 receptor; 1 uM compound): 12.56 fold

SMILES: Cc1c(Oc2ccc(/C=C3\SC(=O)NC3=O)cc2)ncnc1OC1CCN(C(=O)OC(C)(C)C)CC1 [Example 1, (Z)-tert-Butyl 4-((6-(4-((2,4-dioxothiazolidin-5-ylidene)methy 1)phenoxy)-5-methylpyrimidin-4-yl)oxy)piperidine-1-carboxylate]
% reduction in AUC at 50 mg/kg (C57/BL6 mice): 35.0%
% reduction in AUC at 50 mg/kg (db/db mice): 56.2%
EC50 (human GPR 119 receptor): 88 nM
Fold increase in cyclic AMP with respective to DMSO (human GPR 119 receptor; 10 nM compound): 0.90 fold
Fold increase in cyclic AMP with respective to DMSO (human GPR 119 receptor; 100 nM compound): 2.27 fold
Fold increase in cyclic AMP with respective to DMSO (human GPR 119 receptor; 1 uM compound): 3.96 fold

The next lines start with results.

EC50 (human GPR 119 receptor): 43 nM
Fold increase in cyclic AMP with respective to DMSO (human GPR 119 receptor; 10 nM compound): 2.54 fold
Fold increase in cyclic AMP with respective to DMSO (human GPR 119 receptor; 100 nM compound): 4.86 fold
Fold increase in cyclic AMP with respective to DMSO (human GPR 119 receptor; 1 uM compound): 6.57 fold
SMILES: Cc1c(Oc2cccc(/C=C3\SC(=O)NC3=O)c2)ncnc1OC1CCN(C(=O)OC(C)(C)C)CC1 [Example 9, (Z)-tert-Butyl 4-((6-(3-((2,4-dioxothiazolidin-5-ylidene)methyl)phenoxy)-5-methylpyrimidin-4-yl)oxy)piperidine-1-carboxylate]
% reduction in AUC at 50 mg/kg (C57/BL6 mice): 32.4%
% reduction in AUC at 50 mg/kg (db/db mice): 69.1%

EC50 (human GPR 119 receptor): 124 nM
Fold increase in cyclic AMP with respective to DMSO (human GPR 119 receptor; 10 nM compound): 0.79 fold
Fold increase in cyclic AMP with respective to DMSO (human GPR 119 receptor; 100 nM compound): 1.32 fold
Fold increase in cyclic AMP with respective to DMSO (human GPR 119 receptor; 1 uM compound): 2.24 fold
SMILES: Cc1c(Oc2ccc(/C=C3\SC(=O)NC3=O)cc2)ncnc1OC1CCN(c2nc(C(C)C)no2)CC1 [Example 7, (Z)-5-(4-((6-((1-(3-iso-Propyl-1,2,4-oxadiazol-5-yl)piperidin-4-yl)oxy)-5-methylpyrimidin-4-yl)oxy)benzylidene)thiazolidine-2,4-dione]
% reduction in AUC at 50 mg/kg (C57/BL6 mice): 29.0%
% reduction in AUC at 50 mg/kg (db/db mice): 22.4%

EC50 (human GPR 119 receptor): 130 nM
Fold increase in cyclic AMP with respective to DMSO (human GPR 119 receptor; 10 nM compound): 2.22 fold
Fold increase in cyclic AMP with respective to DMSO (human GPR 119 receptor; 100 nM compound): 4.47 fold
Fold increase in cyclic AMP with respective to DMSO (human GPR 119 receptor; 1 uM compound): 7.00 fold
SMILES: CC(C)(C)OC(=O)N1CCC(Oc2cc(Oc3ccc(/C=C4\SC(=O)NC4=O)cc3)ncn2)CC1 [Example 12, (Z)-tert-Butyl 4-((6-(4-((2,4-dioxothiazolidin-5-ylidene)methyl)phenoxy)pyrimidin-4-yl)oxy)piperidine-1-carboxylate]
% reduction in AUC at 50 mg/kg (C57/BL6 mice): 23.4%
% reduction in AUC at 50 mg/kg (db/db mice): 66.7%

— US8785463B2, “GPR 119 agonists” (Cadila Healthcare Limited, priority 2010, dated 2014)
